Reference: ChEMBL document CHEMBL1201862, “PubChem BioAssay data set” (2004)
Calls of active or inactive are those of the source.

What was measured:
cells [1] = type: functional, cell-based; details: HEK-CNG
[2] = HepG2 cell cytotoxicity, dose response, cytotoxicity control, ATP luminescence, cherry-pick, set 6 (AID 1053125); type: functional, cell-based
[3] = Luminescence Cell-Based Dose Response HTS to Identify Inhibitors of 5'UTR Stem-Loop Driven Prion Protein mRNA Translation in H4 Neuroglioblastoma Cells. [Related pubchem assays: 1827 (Project Summary), 1813 (Primary HTS)]; type: functional
[4] = inhibitors of SNCA 5'UTR-driven reporter translation, confirmation, H4 neuroglioma cells, luminescence (AID 1988); type: functional, cell-based
Galanin receptor type 3 = target: T1, Galanin receptor type 3 (Homo sapiens, UniProt O60755); assay: Fluorescence-based cell-based primary high throughput dose response assay to identify antagonists of the Galanin Receptor 3 (GalR3).; type: functional
T1 sequence (O60755 whole entry): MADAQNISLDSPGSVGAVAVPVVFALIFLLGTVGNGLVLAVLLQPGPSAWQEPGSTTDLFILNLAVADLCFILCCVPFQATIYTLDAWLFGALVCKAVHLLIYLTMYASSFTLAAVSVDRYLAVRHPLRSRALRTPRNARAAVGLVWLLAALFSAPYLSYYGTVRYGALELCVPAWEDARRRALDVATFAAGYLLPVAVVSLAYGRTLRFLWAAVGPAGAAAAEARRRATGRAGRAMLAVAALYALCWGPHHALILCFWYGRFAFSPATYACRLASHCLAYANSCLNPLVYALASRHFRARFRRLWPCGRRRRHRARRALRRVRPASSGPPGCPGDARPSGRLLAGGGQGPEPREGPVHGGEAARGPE

[5] = inhibitors of firefly luciferase expression or activity, dose response, H4 neuroglioma cells, luminescence (AID 1990); type: functional, cell-based
[6] = target: ATP-dependent molecular chaperone HSP82 (Candida albicans (strain WO-1) (Yeast), UniProt C4YTQ8); assay: loss of DOC-induced GRE-beta-galactosidase reporter signal, dose response, Hsp90 inhibitor project, S. cerevisiae, luminescence (AID 2400); type: functional, cell-based;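 further: beta-galactosidase luminescence from glucocorticoid response element reporter as proxy for Hsp90 function; inhibitor potency where signal loss means Hsp90 inhibition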
[7] = target: T2, Serine/threonine-protein phosphatase (Candida dubliniensis (strain CD36 / CBS 7987 / NCPF 3949 / NRRLY-17841) (Yeast), UniProt B9W6M3); assay: calcineurin pathway inhibitors in yeast reporter, dose response, S. cerevisiae, CDRE-lacZ, luminescence, secondary (AID 2388); type: functional, cell-based;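 further: yeast reporter cells carrying a calcineurin-responsive lacZ construct stimulated with calcium chloride; luminescent beta-galactosidase reporter signal in whole cells rather than isolated phosphatase activity; potency for inhibition where a drop in reporter signal means calcineurin blockade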
T2 sequence (B9W6M3 whole entry): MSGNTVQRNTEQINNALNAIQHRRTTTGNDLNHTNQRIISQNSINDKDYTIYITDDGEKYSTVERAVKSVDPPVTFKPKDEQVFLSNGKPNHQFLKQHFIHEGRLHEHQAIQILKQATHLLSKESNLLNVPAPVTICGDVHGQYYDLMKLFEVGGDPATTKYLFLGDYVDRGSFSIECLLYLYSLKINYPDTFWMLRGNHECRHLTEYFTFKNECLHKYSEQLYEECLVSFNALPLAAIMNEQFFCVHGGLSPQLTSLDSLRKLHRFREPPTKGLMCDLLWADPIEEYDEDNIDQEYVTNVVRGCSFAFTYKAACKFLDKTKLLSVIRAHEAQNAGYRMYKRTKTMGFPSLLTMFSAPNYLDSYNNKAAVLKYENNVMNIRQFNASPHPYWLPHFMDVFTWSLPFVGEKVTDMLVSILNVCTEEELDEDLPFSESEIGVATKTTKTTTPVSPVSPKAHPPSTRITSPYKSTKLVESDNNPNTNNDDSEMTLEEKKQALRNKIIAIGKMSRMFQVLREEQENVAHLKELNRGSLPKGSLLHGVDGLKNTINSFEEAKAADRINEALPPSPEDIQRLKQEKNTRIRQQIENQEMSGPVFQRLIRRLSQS

[8] = target: T3, DNA repair protein RAD52 homolog (Homo sapiens, UniProt P43351); type: functional, biochemical
T3 sequence (P43351 whole entry): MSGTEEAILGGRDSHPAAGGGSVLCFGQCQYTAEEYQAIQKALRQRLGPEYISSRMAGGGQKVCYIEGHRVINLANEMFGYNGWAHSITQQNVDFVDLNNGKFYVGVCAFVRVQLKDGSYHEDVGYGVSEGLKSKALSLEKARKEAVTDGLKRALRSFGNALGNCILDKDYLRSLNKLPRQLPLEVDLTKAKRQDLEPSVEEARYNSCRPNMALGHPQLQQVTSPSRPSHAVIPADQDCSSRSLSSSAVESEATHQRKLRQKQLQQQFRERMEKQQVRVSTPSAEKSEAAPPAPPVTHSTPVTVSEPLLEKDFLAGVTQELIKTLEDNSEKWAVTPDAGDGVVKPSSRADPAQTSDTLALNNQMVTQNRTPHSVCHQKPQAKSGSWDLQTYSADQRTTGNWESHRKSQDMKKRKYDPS

[9] = cytotoxicity toward NIH3T3 fibroblasts, dose response, counter-screen, cell-based, ATP luminescence, mouse fibroblasts (AID 2010); type: functional;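 further: cells exposed to compound for about 90 hours before reading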
[10] = inhibitors of intracellular T. cruzi replication, confirmation, NIH3T3 host cells, beta-gal luminescence (AID 2044); type: functional, cell-based;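 further: intracellular parasites grown in NIH/3T3 mouse fibroblasts as host cells; luminescent beta-galactosidase reporter signal from transgenic T. cruzi replicating inside host cells; inhibitors lower the luminescence signal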
[11] = target: T4, Neuropeptide Y receptor type 2 (Homo sapiens, UniProt P49146); assay: NPY-Y2 antagonist potency, selectivity check, dose response, counter-screen for NPY-Y1 antagonist project, cell-based (AID 1278); type: functional
T4 sequence (P49146 whole entry): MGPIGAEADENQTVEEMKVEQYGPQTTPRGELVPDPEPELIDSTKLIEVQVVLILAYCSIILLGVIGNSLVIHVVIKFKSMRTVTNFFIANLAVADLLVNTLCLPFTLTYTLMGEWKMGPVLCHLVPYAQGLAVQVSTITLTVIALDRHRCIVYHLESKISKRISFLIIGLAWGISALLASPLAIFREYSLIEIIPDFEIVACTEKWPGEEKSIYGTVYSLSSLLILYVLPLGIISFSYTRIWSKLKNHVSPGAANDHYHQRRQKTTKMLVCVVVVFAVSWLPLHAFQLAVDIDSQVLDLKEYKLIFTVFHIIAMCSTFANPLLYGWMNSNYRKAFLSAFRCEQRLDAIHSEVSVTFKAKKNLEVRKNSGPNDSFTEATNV

[12] = C. albicans growth with fluconazole, confirmation, fluorescence, retest (AID 2467); type: functional, cell-based
cells [13] = assay: cells
[14] = NIH-3T3 fibroblast cytotoxicity, dose response, cytotoxicity control, cell-based, fluorescence, Alamar Blue, secondary assay (AID 2327); type: functional;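 further: NIH-3T3 mouse fibroblasts cultured with fluconazole at 8 µg/mL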
cells [15] = details: A549
[16] = target: T5, Neuropeptide Y receptor type 1 (Homo sapiens, UniProt P25929); assay: NPY-Y1 receptor antagonist potency, dose response, cell-based (AID 1277); type: functional
T5 sequence (P25929 whole entry): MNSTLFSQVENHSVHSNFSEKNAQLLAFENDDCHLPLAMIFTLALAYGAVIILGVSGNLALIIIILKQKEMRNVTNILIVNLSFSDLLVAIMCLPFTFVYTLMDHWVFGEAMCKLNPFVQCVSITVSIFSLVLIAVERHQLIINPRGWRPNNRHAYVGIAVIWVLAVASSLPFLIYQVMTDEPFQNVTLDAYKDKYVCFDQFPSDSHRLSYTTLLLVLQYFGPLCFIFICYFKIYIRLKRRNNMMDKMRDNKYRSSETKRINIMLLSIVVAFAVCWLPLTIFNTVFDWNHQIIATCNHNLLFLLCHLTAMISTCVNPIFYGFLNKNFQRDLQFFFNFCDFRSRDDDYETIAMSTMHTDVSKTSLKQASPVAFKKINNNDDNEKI

cells [17] = details: HEK293

Chain of ATP-dependent molecular chaperone HSP82 (C4YTQ8 whole entry): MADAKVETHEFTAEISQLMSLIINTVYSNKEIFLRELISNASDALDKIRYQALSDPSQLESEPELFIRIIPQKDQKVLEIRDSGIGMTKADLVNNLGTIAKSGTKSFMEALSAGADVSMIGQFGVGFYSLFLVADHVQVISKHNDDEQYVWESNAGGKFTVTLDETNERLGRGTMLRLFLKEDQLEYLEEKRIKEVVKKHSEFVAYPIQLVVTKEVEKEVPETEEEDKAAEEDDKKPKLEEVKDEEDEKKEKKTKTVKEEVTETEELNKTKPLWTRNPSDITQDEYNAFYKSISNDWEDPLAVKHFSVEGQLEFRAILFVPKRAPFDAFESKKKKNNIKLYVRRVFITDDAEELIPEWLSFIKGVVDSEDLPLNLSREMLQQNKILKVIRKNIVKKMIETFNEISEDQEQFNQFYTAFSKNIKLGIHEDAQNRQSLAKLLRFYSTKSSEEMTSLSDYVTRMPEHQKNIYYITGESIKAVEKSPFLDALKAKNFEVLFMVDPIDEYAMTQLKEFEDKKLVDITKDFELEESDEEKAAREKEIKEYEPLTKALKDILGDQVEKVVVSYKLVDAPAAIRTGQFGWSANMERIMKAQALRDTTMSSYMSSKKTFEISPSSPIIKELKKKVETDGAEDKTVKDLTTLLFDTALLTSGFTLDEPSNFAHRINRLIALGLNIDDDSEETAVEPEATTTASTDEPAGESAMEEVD

CC[n+]1c(/C=C2\SC(c3ccccc3C)=CN2C)sc2ccccc21
active: AC50 [2] 2.18 µM | EC50 [3] 8.01 µM | EC50 [4] 0.619 µM | IC50 (Galanin receptor type 3) 0.404 µM | EC50 [5] 8.74 µM | AC50 [8] 8.2 µM | EC50 [9] 7.48 µM | EC50 [10] < 0.1 µM | EC50 [12] 0.212 µM | EC50 (cells [13]) 0.021 µM | AC50 (cells [15]) 2.44 µM | IC50 [16] 6.98 µM | AC50 (cells [17]) 2.77 µM
29.6 µM (not active): IC50 [11]
inactive: EC50 (cells [1]) > 29.9 µM | EC50 [6] > 150 µM | EC50 [7] > 180 µM | EC50 [14] > 150 µM
